From patent publication US20050153992A1, “Pyrrolopyrimidine thion derivatives” (TEIJIN PHARMA LIMITED, priority 2003, published 2005)

What follows are molecules tested against recombinant human GSK-3β (Homo sapiens, UniProt P49841) (assay: Determination of Inhibition of GSK-3 Activity (phospho-glycogen synthase peptide-2, [γ-33P]ATP, scintillation counting)). Conditions: 20 μM ATP, 20 minutes at room temperature; read-out: GSK-3 inhibitor activity values (IC50 values).
Format: biochemical
Method: Determination of Inhibition of GSK-3 Activity
The reaction was initiated by adding 25 μL of phospho-glycogen synthase peptide-2 substrate solution [containing 6 μM phospho-glycogen synthase peptide-2, 20 μM ATP, 16 mM MOPS buffer (pH 7.0), 0.2 mM EDTA, 20 mM magnesium acetate, 0.1 μ Ci[γ-^33P]ATP (relative activity: approximately 110 TBq/mmol)] to 5 μL of each test compound using 5% dimethylsulfoxide as a solvent, and further adding 20 μL of GSK-3β enzyme solution [containing 10 mU recombinant human GSK-3β, 20 mM MOPS buffer (pH 7.0), 1 mM EDTA, 0.1% polyoxyethylene lauryl ether (23 Lauryl Ether; Brij 35), 5% glycerol, and 0.1% β-mercaptoethanol. After 20 minutes at room temperature, the reaction was terminated by the addition of the equivalent amount of 200 mM phosphoric acid solution. 90 μL of the reaction product was spotted onto a multiscreen PH plate (manufactured by Millipore) and washed with 100 mM phosphoric acid solution. The plate was dried, and 30 μL of MicroScint-O (manufactured by Packard BioScience) was added thereto. To evaluate inhibitory activity, cpm was counted using a scintillation counter. Here, Phospho GS Peptide 2 is an amino acid peptide having the following sequence: […]P)-Glu-Asp-Glu- Glu-Glu.
GSK-3 inhibitor activity values (IC50 values) of the compounds according to the present invention were measured by the method described above. As a result, inhibition activity of IC50<100 nM was confirmed in compounds of compound numbers 1, 35, 36, 37, 123, 157, 158, 160, 193, 234, and 263.

Sequence of recombinant human GSK-3β (P49841 whole entry): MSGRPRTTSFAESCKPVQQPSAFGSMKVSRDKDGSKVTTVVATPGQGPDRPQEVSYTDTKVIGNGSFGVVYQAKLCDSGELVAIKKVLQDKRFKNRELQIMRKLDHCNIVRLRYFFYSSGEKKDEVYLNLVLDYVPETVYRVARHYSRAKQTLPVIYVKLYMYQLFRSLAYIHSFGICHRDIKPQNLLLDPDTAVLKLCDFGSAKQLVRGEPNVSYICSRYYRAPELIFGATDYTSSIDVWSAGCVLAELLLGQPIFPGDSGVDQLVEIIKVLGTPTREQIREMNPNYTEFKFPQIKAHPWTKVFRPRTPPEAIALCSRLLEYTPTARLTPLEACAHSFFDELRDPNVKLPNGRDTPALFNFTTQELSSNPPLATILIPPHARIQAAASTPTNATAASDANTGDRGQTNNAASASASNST

IC50, < 100 nM:
CCn1nc(C)cc1C(=O)NCCn1c(-c2sccc2Cl)c(I)c2nc[nH]c(=S)c21 [Compound 234, N-{2-[6-(3-chloro(2-thienyl))-7-iodo-4-thioxo(3-hydropyrrolo[3,2-d]pyrimidin-5-yl)]ethyl}(1-ethyl-3-methylpyrazol-5-yl)carboxyamide]
O=C(NCCn1c(-c2sccc2Cl)c(Cl)c2nc[nH]c(=S)c21)c1ccc(F)cc1 [Compound 157]
O=C(NCCn1c(-c2sccc2Cl)c(NC(=O)c2ccccc2)c2nc[nH]c(=S)c21)c1ccc(F)cc1 [Compound 193, N-{2-[6-(3-chloro(2-thienyl))-7-(phenylcarbonylamino)-4-thioxo(3-hydropyrrolo[3,2-d]pyrimidin-5-yl)]ethyl}(4-fluorophenyl)carboxyamide]
O=C(NCCn1c(-c2sccc2Cl)c(Br)c2nc[nH]c(=S)c21)c1ccc(F)cc1 [Compound 158]
Nc1c(-c2sccc2Cl)n(CCNC(=O)c2ccc(F)cc2)c2c(=S)[nH]cnc12 [Compound 160, N-{2-[7-amino-6-(3-chloro(2-thienyl))-4-thioxo(3-hydropyrrolo[3,2-d]pyrimidin-5-yl)]ethyl}(4-fluorophenyl)carboxyamide]
S=c1[nH]cnc2c(I)c(-c3sccc3Cl)n(CCNc3ncnc4ccccc34)c12 [Compound 37, 6-(3-chloro(2-thienyl))-7-iodo-5-[2-(quinazolin-4-ylamino)ethyl]-3-hydropyrrolo[3,2-d]pyrimidin-4-thione]
O=C(NCCn1c(-c2sccc2Cl)c(-c2cccnc2)c2nc[nH]c(=S)c21)C(F)(F)F [Compound 123]
O=C(NCCn1c(-c2sccc2Cl)c(I)c2nc[nH]c(=S)c21)c1ccc(F)cc1 [Compound 1, N-{2-[6-(3-chloro(2-thienyl))-7-iodo-4-thioxo(3-hydropyrrolo[3,2-d]pyrimidin-5-yl)]ethyl}(4-fluorophenyl)carboxyamide]
